# Results reported in EP0614465B1, “HYBRID PROTEIN BETWEEN CS FROM […] HBsAG” (SMITHKLINE BEECHAM BIOLOGICALS S.A., priority 1991, dated 1993).
# System: R32tet32 antigen
# Test: immunogenicity in mice: anti-R32tet32 (anti-repeat) antibody titer by ELISA
# Type: in vivo, Balb/C mice
# Details: effect of 3D-MPL (50 µg/dose) added to (RTS,S) on A1(OH)3
substance,measurement,value
3 Deacylated monophosphoryl lipid A [3D-MPL],primary antibody response in mice,enhanced
